Reference: the CheMixHub viscosity set

Test: xn = mol fraction of the nth substance listed

CNC=O + CCC(=O)O
viscosity [mPa·s], 100 kPa
Details | x1 = 0.1115 | x1 = 0.1858 | x1 = 0.2665 | x1 = 0.3545 | x1 = 0.4849 | x1 = 0.5942 | x1 = 0.6734 | x1 = 0.7583 | x1 = 0.8978
303.15 K | 1.025 | 1.069 | 1.116 | 1.169 | 1.248 | 1.315 | 1.365 | 1.42 | 1.514
308.15 K | 0.9555 | 0.9958 | 1.039 | 1.087 | 1.159 | 1.22 | 1.265 | 1.315 | 1.399
313.15 K | 0.8989 | 0.9358 | 0.9757 | 1.019 | 1.083 | 1.138 | 1.179 | 1.223 | 1.298
318.15 K | 0.8503 | 0.8846 | 0.9214 | 0.9605 | 1.019 | 1.068 | 1.104 | 1.143 | 1.209

C[N+]1(CC2CO2)CCCC1=O.[Cl-] (centres undefined) + CCC(=O)O
viscosity [mPa·s], 101 kPa
Details | 293.15 K | 298.15 K | 303.15 K | 308.15 K | 313.15 K
x1 = 0.0325 | 1.305 | 1.209 | 1.12 | 1.041 | 0.971
x1 = 0.0638 | 1.577 | 1.45 | 1.335 | 1.233 | 1.144
x1 = 0.1089 | 1.836 | 1.673 | 1.533 | 1.41 | 1.301
x1 = 0.205 | 2.333 | 2.104 | 1.909 | 1.738 | 1.592
x1 = 0.3036 | 2.544 | 2.285 | 2.064 | 1.876 | 1.712
x1 = 0.4076 | 2.537 | 2.278 | 2.059 | 1.87 | 1.707
x1 = 0.5049 | 2.288 | 2.069 | 1.882 | 1.718 | 1.578
x1 = 0.6079 | 2.088 | 1.895 | 1.729 | 1.586 | 1.462
x1 = 0.7037 | 1.935 | 1.763 | 1.613 | 1.485 | 1.372
x1 = 0.8065 | 1.808 | 1.65 | 1.516 | 1.399 | 1.296
x1 = 0.9028 | 1.643 | 1.507 | 1.39 | 1.286 | 1.194

CCCCOCCO + CCC(C)=O
298.15 K, 101 kPa
Details | viscosity [mPa·s]
x2 = 0.154 | 2.106
x2 = 0.2906 | 1.609
x2 = 0.4126 | 1.234
x2 = 0.5221 | 0.939
x2 = 0.6211 | 0.727
x2 = 0.7108 | 0.607
x2 = 0.7927 | 0.519
x2 = 0.8676 | 0.466
x2 = 0.9365 | 0.416

CCCCCCCCN(CCCCCCCC)CCCCCCCC + CCCCCC
Details | viscosity [mPa·s]
298 K, 101.3 kPa, x1 = 0.00584 | 0.331

CCCCOCCO + CCCCCC
viscosity [mPa·s], 101 kPa
Details | 303.15 K | 313.15 K
x1 = 0.0327 | 0.292 | 0.258
x1 = 0.1014 | 0.354 | 0.31
x1 = 0.1974 | 0.456 | 0.396
x1 = 0.2974 | 0.587 | 0.506
x1 = 0.395 | 0.741 | 0.634
x1 = 0.4968 | 0.93 | 0.787
x1 = 0.5957 | 1.148 | 0.956
x1 = 0.7323 | 1.507 | 1.23
x1 = 0.8316 | 1.793 | 1.458
x1 = 0.8992 | 2.025 | 1.634
x1 = 0.9658 | 2.271 | 1.79

CCOC(=O)CCl + CCCCCC
viscosity [mPa·s], 101.33 kPa
Details | x1 = 0.0977 | x1 = 0.2029 | x1 = 0.3028 | x1 = 0.4001 | x1 = 0.4982 | x1 = 0.6039 | x1 = 0.7027 | x1 = 0.8032 | x1 = 0.9022
298.15 K | 0.342 | 0.375 | 0.416 | 0.465 | 0.524 | 0.602 | 0.683 | 0.787 | 0.923
303.15 K | 0.326 | 0.357 | 0.396 | 0.441 | 0.495 | 0.566 | 0.641 | 0.739 | 0.861
308.15 K | 0.309 | 0.339 | 0.377 | 0.417 | 0.466 | 0.53 | 0.6 | 0.69 | 0.8

COC(=O)c1ccccc1 + CCCCCC
101 kPa
Details | viscosity [mPa·s]
298.15 K, x2 = 0.0743 | 1.549
298.15 K, x2 = 0.1072 | 1.437
298.15 K, x2 = 0.1557 | 1.292
298.15 K, x2 = 0.2038 | 1.165
298.15 K, x2 = 0.2487 | 1.059
298.15 K, x2 = 0.306 | 0.942
298.15 K, x2 = 0.4327 | 0.739
298.15 K, x2 = 0.5799 | 0.573
298.15 K, x2 = 0.6269 | 0.531
298.15 K, x2 = 0.7731 | 0.43
298.15 K, x2 = 0.8687 | 0.379
298.15 K, x2 = 0.9288 | 0.356
308.15 K, x2 = 0.0711 | 1.287
308.15 K, x2 = 0.1099 | 1.188
308.15 K, x2 = 0.156 | 1.08
308.15 K, x2 = 0.1971 | 0.989
308.15 K, x2 = 0.2501 | 0.894
308.15 K, x2 = 0.2967 | 0.816
308.15 K, x2 = 0.3441 | 0.748
308.15 K, x2 = 0.3888 | 0.69
308.15 K, x2 = 0.4383 | 0.633
308.15 K, x2 = 0.4943 | 0.577
308.15 K, x2 = 0.5292 | 0.546
308.15 K, x2 = 0.5797 | 0.504
308.15 K, x2 = 0.6228 | 0.475
308.15 K, x2 = 0.6692 | 0.446
308.15 K, x2 = 0.7253 | 0.412
308.15 K, x2 = 0.767 | 0.392
308.15 K, x2 = 0.8162 | 0.37
308.15 K, x2 = 0.8731 | 0.347
308.15 K, x2 = 0.9205 | 0.329
318.15 K, x2 = 0.08 | 1.087
318.15 K, x2 = 0.0873 | 1.072
318.15 K, x2 = 0.1249 | 1
318.15 K, x2 = 0.1776 | 0.906
318.15 K, x2 = 0.2189 | 0.839
318.15 K, x2 = 0.2731 | 0.757
318.15 K, x2 = 0.3197 | 0.696
318.15 K, x2 = 0.3711 | 0.634
318.15 K, x2 = 0.4155 | 0.586
318.15 K, x2 = 0.4667 | 0.537
318.15 K, x2 = 0.5132 | 0.499
318.15 K, x2 = 0.5535 | 0.471
318.15 K, x2 = 0.6116 | 0.436
318.15 K, x2 = 0.6634 | 0.41
318.15 K, x2 = 0.7082 | 0.388
318.15 K, x2 = 0.7636 | 0.365
318.15 K, x2 = 0.8087 | 0.35
318.15 K, x2 = 0.8631 | 0.333
318.15 K, x2 = 0.9098 | 0.317

CCOC(=O)CCl + CCCCCCC
viscosity [mPa·s], 101.33 kPa
Details | x1 = 0.1037 | x1 = 0.203 | x1 = 0.3009 | x1 = 0.4005 | x1 = 0.4992 | x1 = 0.6048 | x1 = 0.705 | x1 = 0.8022 | x1 = 0.8954
298.15 K | 0.419 | 0.45 | 0.484 | 0.53 | 0.585 | 0.651 | 0.726 | 0.817 | 0.93
303.15 K | 0.398 | 0.424 | 0.457 | 0.498 | 0.545 | 0.608 | 0.676 | 0.761 | 0.859
308.15 K | 0.378 | 0.402 | 0.432 | 0.469 | 0.522 | 0.569 | 0.634 | 0.71 | 0.8

COC(=O)c1ccccc1 + CCCCCCC
viscosity [mPa·s], 101.3 kPa
Details | x1 = 0.0999 | x1 = 0.196 | x1 = 0.3001 | x1 = 0.3974 | x1 = 0.5004 | x1 = 0.5978 | x1 = 0.6984 | x1 = 0.8033 | x1 = 0.9017
298.15 K | 0.425 | 0.464 | 0.533 | 0.601 | 0.701 | 0.814 | 0.968 | 1.183 | 1.435
308.15 K | 0.382 | 0.418 | 0.472 | 0.535 | 0.616 | 0.708 | 0.839 | 1.008 | 1.197
318.15 K | 0.346 | 0.378 | 0.422 | 0.475 | 0.539 | 0.62 | 0.72 | 0.86 | 1.024
